Data published in article PMC11571054, “Unveiling the GT114 family: Structural characterization of A075L, a glycosyltransferase from Paramecium bursaria chlorella virus‐1 (PBCV‐1)” (Protein Science : A Publication of the Protein Society, 2024).

Tests used:
A075L [1] = target: T1, A075L (Paramecium bursaria Chlorella virus 1, UniProt Q89410); assay: STD-NMR; format: binding; settings: 1:40 enzyme-acceptor ratio; 25 °C; binds but is not glycosylated
T1 construct: recombinant in E. coli BL21 Gold (SeMet in B834); GST tag cut with PreScission protease; GST kept only for mutant D73A
T1 sequence (Q89410 1-280): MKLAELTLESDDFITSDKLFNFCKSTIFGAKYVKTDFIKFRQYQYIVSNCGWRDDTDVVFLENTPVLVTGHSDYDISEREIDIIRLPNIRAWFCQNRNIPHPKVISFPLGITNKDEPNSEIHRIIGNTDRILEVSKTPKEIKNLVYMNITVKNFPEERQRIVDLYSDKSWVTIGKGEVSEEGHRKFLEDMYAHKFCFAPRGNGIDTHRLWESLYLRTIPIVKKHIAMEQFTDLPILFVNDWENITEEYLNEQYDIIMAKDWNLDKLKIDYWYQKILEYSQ

A075L [2] = target: T1, A075L; assay: ITC; format: binding

Row | SMILES | STD-NMR (A075L [1]) | Kd (A075L [2]) [µM]
1 | CCCCCCCCO[C@@H]1O[C@@H](C)[C@@H](O)[C@@H](O)[C@@H]1O[C@H]1O[C@H](CO)[C@H](O)[C@H](O)[C@H]1O [compound 5, α‐D‐Gal‐(1 → 2)‐α‐L‐Fuc‐Octyl] | despite their lower reactivity, both disaccharides can be accommodated in the binding site | –
2 | O=c1ccn([C@@H]2O[C@H](COP(=O)(O)OP(=O)(O)O[C@H]3OC[C@@H](O)[C@H](O)[C@H]3O)[C@@H](O)[C@H]2O)c(=O)[nH]1 [compound 1, UDP‐α‐D‐Xyl] | – | 31
